Laboratory results reported in publication PMC12366525, “Characterization of allosteric modulators that disrupt androgen receptor co-activator protein-protein interactions to alter transactivation–Drug leads for metastatic castration resistant prostate cancer” (SLAS discovery : advancing life sciences R & D, 2023).
“And” between values parts separate entries of the source, which are not always exact repeats. Identical values can stand only once. Like-named read-outs stand apart in the source and are kept apart here.

What was measured:
Type in all cases: cell-based
PC-3 cells = experiment: Prostate cancer cell line growth inhibition assay, PC-3; details: read-out: PC3 GI50 (AR−)
Protocol: (§1) The PC-3, DU-145, LNCaP, C4–2, and 22Rv1 PC cell line growth inhibition assays have been described previously. On day 1, each PC cell line was harvested, counted, and seeded into two 384-well assay plates, a time zero (T0) and a time 72 h (T72) plate. PC cell lines were all seeded at 1000 cells per well in 45 μL of tissue culture media in uncoated white clear bottom 384-well assay plates (VWR, # 82050–076) using a Matrix electronic multichannel pipette (Thermo Fisher Scientific, Waltham, MA) and cultured overnight at 37 °C, 5% CO2, and 95% humidity. On day 2, 25 μL of the Cell Titer Glo (CTG) (Promega Corporation, Madison, WI) detection reagent was dispensed into the wells of the T0 assay plate using a Matrix electronic multichannel pipette, and the RLUs were captured on the SpectraMax M5e (Molecular Devices LLC, Sunnyvale, CA) microtiter plate reader. Also on day 2, 5 μL of compounds were transferred into the test wells of the T72 384-well assay plates which were returned to the incubator for 72 h. Control wells received DMSO alone. On day 5, 25 μL of the CTG detection reagent was dispensed into the wells of the T72 assay plate using a Matrix electronic multichannel pipette, and the RLU’s were captured on the SpectraMax M5e microtiter plate reader platform.
(§2) In 384-well assays, DMSO minimum (n = 32) and maximum (n = 32) plate control wells were utilized to calculate signal-to-background ratios (S:B) and Z’-factor coefficient assay performance quality control statistics, and to normalize the signals of compound treated wells and to represent 0% and 100% respectively. For the 96-well AR-LBD H^3-DHT radioligand binding assay, eight minimum and maximum plate control wells were utilized to normalize the data. For the PC cell line growth inhibition assays we used the DMSO control data from the T0 and T72 assay plates to assess the dynamic range of the T0 to T72 cell growth, and to calculate S:B ratios and Z’-factor coefficient statistics for the assay signal window (T0 to T72). To normalize the 72 h compound exposure PC growth inhibition data, the signals from the compound treated wells were processed and expressed as% of the T72 DMSO plate controls. IC50 and GI50 values for each of the bioassays were calculated using Graph-Pad Prism 9 software to plot and fit data to curves using the Sigmoidal dose response variable slope equation Y = Bottom + [Top-Bottom]/ [1 + 10^^(LogEC50-X)*HillSlope].

AR-V7 = biological target: T1, AR-V7 (Homo sapiens, UniProt P10275); experiment: PSA6.1 promoter driven luciferase reporter assay in PC3-AR-V7-GFP cells; details: constitutive, 24 h; read-out: PC-3-ARV7-GFP PSA6.1-Luc Reporter IC50
T1 construct: expressed in transfected cells; host or cells: PC3 cells stably expressing AR-V7-GFP
T1 sequence (P10275 1-644 isoform P10275-3): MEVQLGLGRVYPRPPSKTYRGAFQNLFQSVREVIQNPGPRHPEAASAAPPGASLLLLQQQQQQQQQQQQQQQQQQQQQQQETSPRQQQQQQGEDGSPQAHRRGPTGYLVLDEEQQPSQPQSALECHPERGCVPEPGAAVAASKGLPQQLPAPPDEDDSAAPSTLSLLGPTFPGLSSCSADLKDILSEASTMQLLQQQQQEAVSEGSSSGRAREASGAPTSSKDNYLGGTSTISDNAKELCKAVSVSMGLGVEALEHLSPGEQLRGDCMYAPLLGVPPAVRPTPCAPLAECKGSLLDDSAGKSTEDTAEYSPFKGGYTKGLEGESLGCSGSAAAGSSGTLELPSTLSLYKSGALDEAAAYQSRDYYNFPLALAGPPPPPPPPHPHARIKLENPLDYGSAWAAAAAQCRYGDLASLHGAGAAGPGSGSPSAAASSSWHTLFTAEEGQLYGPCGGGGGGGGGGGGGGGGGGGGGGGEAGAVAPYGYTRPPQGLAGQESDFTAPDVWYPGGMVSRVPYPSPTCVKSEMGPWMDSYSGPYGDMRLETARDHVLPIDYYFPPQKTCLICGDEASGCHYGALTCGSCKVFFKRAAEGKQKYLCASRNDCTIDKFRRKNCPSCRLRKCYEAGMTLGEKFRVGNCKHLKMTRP
Protocol: PC3-AR-V7-GFP cells were bulk transfected with a mixture of Fugene HD and the PSA-6.1-Luc reporter plasmid (20 ng/well) combined at a 3:1 (μL:μg) ratio in Opti-MEM (Gibco, Gaithersburg, MD) that had been incubated for 25 min at RT before being added to PC3-AR-V7-GFP cells that were suspended in RPMI 1640 (Gibco) media containing 1% L-glutamine (Invitrogen), and 10% fetal bovine serum (Gemini Bio-products). Bulk transfected PC3-AR-V7-GFP cells were seeded into white opaque 384-well assay plates (Greiner Bio-one, #781080) at 3000 cells per well in a volume of 40 μL and incubated at 5% CO2, 37 °C, and 95% humidity for 24 h. After 24 h, 5 μL of compounds were transferred to assay wells and the plates were returned to the incubator for an additional 24 h before 25 μL of BrightGlo luciferase reagent (Promega) was added to the wells and the RLU’s were captured on a SpectraMax M5e plate reader (Molecular Devices LLC) as described previously.

[1] = tested on: PC cell lines positive (LNCaP, C4–2, & 22Rv1 cells) or negative (PC-3 & DU-145) for AR; experiment: Prostate cancer cell line growth inhibition assays, panel statements; details: 72 h
Protocol: as §1, §2

[2] = LNCaP, C4–2, 22Rv1, read-out: GI50s in AR positive PC cell lines

## Cc1ccccc1-c1cc(O)c2c(c1)CN(c1nc(C(N)=O)cs1)CCO2 [S1–1]
PC-3 cells; 72 h
  GI50: 70.3 µM
PC-3 cells; Homo sapiens, PC-3, 72 h
  GI50: 70 µM
AR-V7
  IC50: 33.5 µM
[1]; [2]
  GI50: 29 to 56 µM

## Cc1ccccc1-c1cc(O)c2c(c1)CN(c1nccs1)CCO2 [S1–3]
PC-3 cells; 72 h
  GI50: > 100 µM
[1]
  Cytotoxicity in AR positive relative to AR negative PC cell lines: exhibited differential cytotoxicity in AR positive PC cell lines

## Cc1nsc(NC(=O)N2CCC(Sc3ccccc3C)CC2)n1 [S2–6]
PC-3 cells; Homo sapiens, PC-3, 72 h
  GI50: > 100 µM
AR-V7
  IC50: 8 µM and 7.88 µM
[1]
  Cytotoxicity in AR positive relative to AR negative PC cell lines: exhibited differential cytotoxicity in AR positive PC cell lines
[1]; Homo sapiens, PC-3, DU-145, read-out: GI50s in AR negative PC cell lines
  GI50: > 100 µM
[1]; [2]
  GI50: 14 to 19 µM

## Cc1c(-c2ccccc2F)[nH]c2ccc(CNC(=O)CCc3cn[nH]c3)cc12 [S3–11]
PC-3 cells; Homo sapiens, PC-3, 72 h
  GI50: 32.6 µM
AR-V7
  IC50: 10.7 µM
[1]
  Cytotoxicity in AR positive relative to AR negative PC cell lines: exhibited differential cytotoxicity in AR positive PC cell lines relative to AR negative cell lines

## Cc1c(-c2ccccc2F)[nH]c2ccc(CNC(=O)CCc3cnccn3)cc12 [S3–12]
PC-3 cells; Homo sapiens, PC-3, 72 h
  GI50: 18.4 µM
AR-V7
  IC50: 8.17 µM
[1]
  Cytotoxicity in AR positive relative to AR negative PC cell lines: roughly equipotent against all 5 PC cell lines

## CC(=O)NCCC(=O)NCc1ccc2[nH]c(-c3ccccc3F)c(C)c2c1 [S3–13]
PC-3 cells; Homo sapiens, PC-3, 72 h
  GI50: > 100 µM
AR-V7
  IC50: 51.7 µM
[1]
  Cytotoxicity in AR positive relative to AR negative PC cell lines: roughly equipotent against all 5 PC cell lines

## Cc1c(-c2ccccc2F)[nH]c2ccc(CNC(=O)c3ccc(CO)o3)cc12 [S3–14]
PC-3 cells; Homo sapiens, PC-3, 72 h
  GI50: > 100 µM
AR-V7
  IC50: 43.9 µM
[1]
  Cytotoxicity in AR positive relative to AR negative PC cell lines: exhibited differential cytotoxicity in AR positive PC cell lines relative to AR negative cell lines

## Cc1c(-c2ccc(F)cc2)[nH]c2ccc(CNC(=O)c3ccc(CO)o3)cc12 [S3–15]
PC-3 cells; Homo sapiens, PC-3, 72 h
  GI50: 23.7 µM
AR-V7
  IC50: 10.1 µM
[1]
  Cytotoxicity in AR positive relative to AR negative PC cell lines: roughly equipotent against all 5 PC cell lines
